# Data published in patent publication US11213593B2, “Sequence-specific cellular uptake of spherical nucleic acid nanoparticle conjugates” (priority 2014, dated 2022).
# How the values were obtained:
# [1] = system: C166 cells; experiment: Confocal microscopy of QD-SNAs in C166 cells; type: cell-based, mouse; details: C166 cells co-treated with equal concentrations of a QD-SNA and an AuNP-SNA of the other shell
# Method: Five nanometer AuNP-SNAs and QD-SNAs comprised of oligonucleotides listed in Table 2 were prepared to study the effect of the poly G shell on the cellular uptake of SNAs of different core compositions (FIG. 6). All sequences are 28 bases long and terminated with a dibenzocyclooctyl (DBCO) group. The AuNP-SNAs and QD-SNAs were synthesized using a previously described strategy [Zhang et al., Nat Mater 12: 741-746 (2013), incorporated herein by reference in its entirety]. In one set of experiments, C166 cells were treated with equal concentrations of T-rich QD-SNAs and poly G AuNP-SNAs. In another set of experiments, cells were treated with equal concentrations of T-rich AuNP-SNAs and poly G QD-SNAs. Confocal microscopy was then used to track the fluorescent signal of the QDs that entered cells. […] To further confirm, ICP-MS was used to analyze the Au content and Cd content in C166 cells treated with T-rich AuNP-SNAs or QD-SNAs alone, poly G AuNP-SNAs or QD-SNAs alone, a combination of T-rich AuNP-SNAs and poly G QD-SNAs, and a combination of T-rich QD-SNAs and poly G AuNP-SNAs. C166 cells treated with poly G AuNP-SNAs have 3 times higher Au content than cells treated with T-rich AuNP-SNAs. […] Cells treated with poly G AuNP-SNAs and T-rich QD-SNAs have higher Au content compared to Cd content, and this trend is reversed for cells treated with T-rich AuNP-SNAs and poly G QD-SNAs (FIG. 6b).
# [2] = system: C166 cells; experiment: ICP-MS of Au and Cd content in C166 cells (competitive cellular uptake assay); type: cell-based, mouse
# Method: Five nanometer AuNP-SNAs and QD-SNAs comprised of oligonucleotides listed in Table 2 were prepared to study the effect of the poly G shell on the cellular uptake of SNAs of different core compositions (FIG. 6). All sequences are 28 bases long and terminated with a dibenzocyclooctyl (DBCO) group. The AuNP-SNAs and QD-SNAs were synthesized using a previously described strategy [Zhang et al., Nat Mater 12: 741-746 (2013), incorporated herein by reference in its entirety]. In one set of experiments, C166 cells were treated with equal concentrations of T-rich QD-SNAs and poly G AuNP-SNAs. In another set of experiments, cells were treated with equal concentrations of T-rich AuNP-SNAs and poly G QD-SNAs. Confocal microscopy was then used to track the fluorescent signal of the QDs that entered cells. […] To further confirm, ICP-MS was used to analyze the Au content and Cd content in C166 cells treated with T-rich AuNP-SNAs or QD-SNAs alone, poly G AuNP-SNAs or QD-SNAs alone, a combination of T-rich AuNP-SNAs and poly G QD-SNAs, and a combination of T-rich QD-SNAs and poly G AuNP-SNAs. […]
# ICP-MS. After adding 5 μL of 5 ppm indium (internal standard) and 5 mL of matrix solution (2% HCl and 2% HNO3), the Au-197 content of the resultant solution was measured by an X Series II ICP-MS (ThermoFisher) after subtracting the background gold content of untreated cells. […]
Substance,intracellular fluorescence of QDs [1],Cd content of cells versus cells treated with T-rich QD-SNAs ([2]; C166 cells),competitive cellular uptake (Au versus Cd content) ([2]; C166 cells treated with a combination of AuNP-SNAs and QD-SNAs)
"T-rich QD-SNAs: CdSe quantum dot, polymer-coated, with DBCO-terminated 28-base T-rich DNA, SEQ ID NO: 8 (DNA TATCGTATTTACTCTGATTTTTTTTTTT; DBCO-terminated DNA clicked to polymer-coated CdSe quantum dot, further chemistry not given here)",very little intracellular fluorescence,,
"poly G QD-SNAs: CdSe quantum dot, polymer-coated, with DBCO-terminated 28-base DNA (GGT)5T13, SEQ ID NO: 7 (DNA GGTGGTGGTGGTGGTTTTTTTTTTTTTT; DBCO-terminated DNA clicked to polymer-coated CdSe quantum dot, further chemistry not given here)",significantly higher intracellular fluorescence,three-fold higher Cd content,preferentially enter cells
